These results are taken from ChEMBL document CHEMBL1201862, “PubChem BioAssay data set” (2004).

Among the test systems are DMS-273; K562; NCI-H460; SF-268; SF-539; SNB-78; IGROV-1; NCI/ADR-RES; KM-20L2; OVCAR-3; U-251; NCI-H23; XF498; OVCAR-8; MCF7; 786-0; TK-10.
What all share (test): inhibition of tumour cell growth, NCI panel, 48 h

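Each compound was tested at five concentrations against cells in 96-well plates for 48 hours. Here, GI50 denotes the concentration required for 50% inhibition of growth.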 Active and inactive are the calls of the source. No stated cut-off is given here; in the data, active = GI50 up to about 1.1 µM and inactive = higher.

With `Cc1nc2ccccc2c(=O)n1Nc1ccc(C(=O)O)cc1`, the GI50 in the assay with DMS-273, with K562, in the assay on NCI-H460, in the assay on SF-268, in the assay with SF-539 and in the assay on SNB-78 was > 100 µM (inactive) in each case. For the same molecule, the GI50 with IGROV-1, in the assay with NCI/ADR-RES, in the assay with KM-20L2, in the assay on OVCAR-3, in the assay with U-251 and in the assay with NCI-H23 was > 100 µM (inactive) each time. Besides, the GI50 with XF498, in the assay on OVCAR-8 and in the assay on MCF7 was > 100 µM (inactive) each time.

`c1ccc2c3c(ccc2c1)-c1[nH]ncc1CCO3`: the GI50 in the assay with DMS-273 was 40.5 µM (inactive); with K562 it was 32.8 µM (inactive); in the assay on NCI-H460, 25.6 µM (inactive); in the assay on SF-268, 37.8 µM (inactive); in the assay on SF-539, 25 µM (inactive); with SNB-78 it was 29.2 µM (inactive). For the same molecule, the GI50 is > 52 µM (inactive) with IGROV-1; 38.2 µM (inactive) with NCI/ADR-RES; 34.5 µM (inactive) with KM-20L2; 27.7 µM (inactive) in the assay with OVCAR-3; 18.4 µM (inactive) in the assay on U-251; 25.2 µM (inactive) with NCI-H23. Besides, the GI50 with XF498 was 32.4 µM (inactive); in the assay with OVCAR-8, 34.4 µM (inactive); in the assay on MCF7, 32.9 µM (inactive).

Regarding `NC(=O)c1c[se]c(C2OC(COP(=O)(O)CP(=O)(O)OCC3OC(n4cnc5c(N)ncnc54)C(O)C3O)C(O)C2O)n1` (stereo unspecified), the GI50 with DMS-273 is 38.6 µM (inactive); with K562, 15.9 µM (inactive); in the assay with NCI-H460, 44.8 µM (inactive); in the assay on SF-268 it was > 100 µM (inactive); in the assay on SF-539, > 100 µM (inactive); with SNB-78 it was > 100 µM (inactive). Also, the GI50 was 84.3 µM (inactive) in the assay with IGROV-1; 74.5 µM (inactive) in the assay on KM-20L2; > 100 µM (inactive) with OVCAR-3; 61 µM (inactive) in the assay on U-251; > 100 µM (inactive) in the assay with NCI-H23; > 100 µM (inactive) with XF498. Further, the GI50 was 63.1 µM (inactive) in the assay on 786-0 and 87.9 µM (inactive) in the assay on OVCAR-8.

As for `COc1ccc(Cc2nn(C3OC(COC(C)=O)C(OC(C)=O)C(OC(C)=O)C3OC(C)=O)c(=S)n(-c3ccc(OC)cc3)c2=O)cc1` (stereo unspecified), the GI50 with DMS-273, with K562, in the assay with NCI-H460, in the assay with SF-268, with SF-539 and in the assay on SNB-78 was > 100 µM (inactive) each time. Besides, the GI50 in the assay with IGROV-1, with NCI/ADR-RES, in the assay with KM-20L2, with OVCAR-3, with U-251 and in the assay on NCI-H23 was > 100 µM (inactive) each time. Besides, the GI50 in the assay on XF498, in the assay on OVCAR-8 and with MCF7 was > 100 µM (inactive) each time.

As for `O=C(c1ccccc1)c1nc2ccc(Cl)cc2c2c1CCCO2`, the GI50 in the assay with DMS-273, in the assay with K562, in the assay on NCI-H460, in the assay on SF-268, with SNB-78 and in the assay on IGROV-1 was > 100 µM (inactive) in each case. Besides, the GI50 was > 100 µM (inactive) with KM-20L2; > 100 µM (inactive) in the assay on TK-10; > 100 µM (inactive) in the assay with OVCAR-3; > 100 µM (inactive) in the assay with U-251; 72.8 µM (inactive) in the assay with NCI-H23; 65.9 µM (inactive) in the assay with XF498. In the assay on OVCAR-8, the GI50 is > 100 µM (inactive).

Turning to `Cc1c2cnccc2c(C)c2c1c1ccccc1n2CC1CO1` (stereo unspecified), the GI50 in the assay with DMS-273 was 0.638 µM (active); in the assay on K562, 0.859 µM (active); in the assay with NCI-H460, 0.454 µM (active); in the assay with SF-268, 0.323 µM (active); in the assay with SF-539, 1.21 µM (inactive); with SNB-78 it was 1.83 µM (inactive). Also, the GI50 in the assay on IGROV-1 is 1.48 µM (inactive); in the assay with NCI/ADR-RES it was 0.826 µM (active); with KM-20L2, 1.3 µM (inactive); in the assay with OVCAR-3, 1.57 µM (inactive); in the assay on U-251 it was 1.6 µM (inactive); in the assay with NCI-H23 it was 0.422 µM (active). Further, the GI50 in the assay on OVCAR-8 is 0.443 µM (active); with MCF7, 0.0422 µM (active).

On to `COC(=O)c1cccc(N[C@@H]2c3cc4c(cc3C(c3cc(OC)c(O)c(OC)c3)[C@H]3C(=O)OCC32)OCO4)c1` (stereo partly specified), for which the GI50 was 0.362 µM (active) with DMS-273; 0.902 µM (active) with K562; 0.0351 µM (active) in the assay with NCI-H460; 1.4 µM (inactive) in the assay with SF-268; 0.528 µM (active) with SF-539; 3.67 µM (inactive) with SNB-78. Also, the GI50 with IGROV-1 was 3.13 µM (inactive); with NCI/ADR-RES it was 0.468 µM (active); with KM-20L2, 2.75 µM (inactive); in the assay on OVCAR-3 it was 2.07 µM (inactive); in the assay on U-251, 1.05 µM (active); in the assay with NCI-H23 it was 0.63 µM (active). In addition, the GI50 in the assay with XF498 is 0.701 µM (active); in the assay with OVCAR-8, 1.73 µM (inactive); in the assay on MCF7, 0.442 µM (active).

As to `CC(C)[C@](O)(C(=O)OCC1=CCN2CC[C@@H](O)[C@@H]12)[C@H](C)O`, the GI50 in the assay with DMS-273 is > 375 µM (inactive); in the assay with K562, > 375 µM (inactive); in the assay on NCI-H460, > 367 µM (inactive); in the assay on SF-268, > 375 µM (inactive); with SF-539, > 375 µM (inactive); with SNB-78, > 375 µM (inactive). Further, the GI50 is > 308 µM (inactive) in the assay on IGROV-1; > 375 µM (inactive) in the assay on NCI/ADR-RES; > 375 µM (inactive) in the assay on KM-20L2; > 375 µM (inactive) with OVCAR-3; > 375 µM (inactive) with U-251; > 375 µM (inactive) in the assay on NCI-H23. Further, the GI50 in the assay with XF498, in the assay on OVCAR-8 and with MCF7 was > 375 µM (inactive) in each case.
